Data as given in US12077503B2, “Substituted cyclic amides and their use as herbicides” (FMC CORPORATION, priority 2015, dated 2024).

Columns and labels:
Format in all cases: in vivo
[1] = tested on: barnyardgrass (Echinochloa crus-galli); test: Test G Pre-Emergence Protocol; details: evaluated after 13 days
Experimental: (§1) Seeds of corn (Zea mays), giant foxtail (Setaria faberi), barnyardgrass (Echinochloa crus-galli), ivy-leaved morning glory (Ipomoea hederacea), redroot pigweed (Amaranthus retroflexus) and velvetleaf (Abutilon theophrasti) were sown in standard soil in pots. After cultivation for one day under controlled conditions in a glasshouse (at 24/16° C., day/night; 14 hours light; 65% humidity), the plants were sprayed with an aqueous spray solution derived from the formulation of the technical active ingredient in acetone/water (50:50) solution containing 0.5% Tween 20 (polyoxyethylene sorbitan monolaurate, CAS RN 9005-64-5) to give a final dose of 15.625, 62.5 or 250 g/ha of test compound.
(§2) The test plants were then grown on under controlled conditions in a glasshouse (at 24/16° C., day/night; 14 hours light; 65% humidity) and watered twice daily. After 13 days the test was evaluated (100=total damage to plant; 0=no damage to plant). A dash (-) means no test result.

[2] = tested on: corn (Zea mays); test: Test G Pre-Emergence Protocol; details: evaluated after 13 days
Experimental: as §1, §2

[3] = tested on: giant foxtail (Setaria faberi); test: Test G Pre-Emergence Protocol; details: evaluated after 13 days
Experimental: as §1, §2

[4] = tested on: ivy-leaved morning glory (Ipomoea hederacea); test: Test G Pre-Emergence Protocol; details: evaluated after 13 days
Experimental: as §1, §2

[5] = tested on: redroot pigweed (Amaranthus retroflexus); test: Test G Pre-Emergence Protocol; details: evaluated after 13 days
Experimental: as §1, §2

[6] = tested on: velvetleaf (Abutilon theophrasti); test: Test G Pre-Emergence Protocol; details: evaluated after 13 days
Experimental: as §1, §2

[7] = tested on: barnyardgrass (Echinochloa crus-galli); test: Test G Post-Emergence Protocol
Experimental: as §1, with “8 days” for “one day”
as §2

[8] = tested on: corn (Zea mays); test: Test G Post-Emergence Protocol
Experimental: as §1, with “8 days” for “one day”
as §2

[9] = tested on: giant foxtail (Setaria faberi); test: Test G Post-Emergence Protocol
Experimental: as §1, with “8 days” for “one day”
as §2

[10] = tested on: ivy-leaved morning glory (Ipomoea hederacea); test: Test G Post-Emergence Protocol
Experimental: as §1, with “8 days” for “one day”
as §2

[11] = tested on: redroot pigweed (Amaranthus retroflexus); test: Test G Post-Emergence Protocol
Experimental: as §1, with “8 days” for “one day”
as §2

[12] = tested on: velvetleaf (Abutilon theophrasti); test: Test G Post-Emergence Protocol
Experimental: as §1, with “8 days” for “one day”
as §2

[13] = 62.5 g ai/ha, 100=total damage to plant, 0=no damage to plant
[14] = 15.625 g ai/ha, evaluated after 13 days (100=total damage to plant; 0=no damage to plant)
[15] = 62.5 g ai/ha, evaluated after 13 days
[16] = 250 g ai/ha, evaluated after 13 days

CN1CC(c2ccc(C(F)(F)F)cc2)C(C(=O)Nc2cccc(F)c2[N+](=O)[O-])C1=O (racemic) [Compound 1546]
Barnyardgrass damage rating (100=total damage to plant; 0=no damage to plant) ([1]; 15.625 g ai/ha): 0 | plant damage rating, Barnyardgrass [1, 13]: 20 | Barnyardgrass damage rating (100=total damage to plant; 0=no damage to plant) ([1]; 250 g ai/ha): 80 | Corn damage rating (100=total damage to plant; 0=no damage to plant) ([2]; 15.625 g ai/ha): 0 | plant damage rating, Corn [2, 13]: 10 | Corn damage rating (100=total damage to plant; 0=no damage to plant) ([2]; 250 g ai/ha): 40 | Foxtail, Giant damage rating (100=total damage to plant; 0=no damage to plant) ([3]; 15.625 g ai/ha): 60 | plant damage rating, Foxtail, Giant [3, 13]: 80 | Foxtail, Giant damage rating (100=total damage to plant; 0=no damage to plant) ([3]; 250 g ai/ha): 90 | Morning-glory, Ivy-leaved damage rating (100=total damage to plant; 0=no damage to plant) ([4]; 15.625 g ai/ha): 0 | plant damage rating, Morningglory, Ivy-leaved [4, 13]: 20 | Morningglory, Ivy-leaved damage rating (100=total damage to plant; 0=no damage to plant) ([4]; 250 g ai/ha): 40 | Pigweed, Redroot damage rating (100=total damage to plant; 0=no damage to plant) ([5]; 15.625 g ai/ha): 0 | plant damage rating, Pigweed, Redroot [5, 13]: 30 | Pigweed, Redroot damage rating (100=total damage to plant; 0=no damage to plant) ([5]; 250 g ai/ha): 70 | Velvetleaf damage rating (100=total damage to plant; 0=no damage to plant) ([6]; 15.625 g ai/ha): 0 | plant damage rating, Velvetleaf [6, 13]: 0 | Velvetleaf damage rating (100=total damage to plant; 0=no damage to plant) ([6]; 250 g ai/ha): 0 | Barnyardgrass damage rating [7, 14]: 40 | Barnyardgrass damage rating (100=total damage to plant; 0=no damage to plant) [7, 15]: 70 | damage to plant, Barnyardgrass (100=total damage to plant; 0=no damage to plant) [7, 16]: 80 | Corn damage rating [8, 14]: 0 | Corn damage rating (100=total damage to plant; 0=no damage to plant) [8, 15]: 20 | damage to plant, Corn (100=total damage to plant; 0=no damage to plant) [8, 16]: 50 | Foxtail, Giant damage rating [9, 14]: 60 | Foxtail, Giant damage rating (100=total damage to plant; 0=no damage to plant) [9, 15]: 80 | damage to plant, Foxtail, Giant (100=total damage to plant; 0=no damage to plant) [9, 16]: 80 | Morningglory, Ivy-leaved damage rating [10, 14]: 0 | Morningglory, Ivy-leaved damage rating (100=total damage to plant; 0=no damage to plant) [10, 15]: 20 | damage to plant, Morningglory, Ivy-leaved (100=total damage to plant; 0=no damage to plant) [10, 16]: 30 | Pigweed, Redroot damage rating [11, 14]: 30 | Pigweed, Redroot damage rating (100=total damage to plant; 0=no damage to plant) [11, 15]: 60 | damage to plant, Pigweed, Redroot (100=total damage to plant; 0=no damage to plant) [11, 16]: 60 | Velvetleaf damage rating [12, 14]: 0 | Velvetleaf damage rating (100=total damage to plant; 0=no damage to plant) [12, 15]: 0 | damage to plant, Velvetleaf (100=total damage to plant; 0=no damage to plant) [12, 16]: 10
